In PMC12124858, “Thymoquinone loaded on chitosan nanoparticles alleviated the consequences of cryptosporidiosis infection in a murine model: Evidence from parasitological, histopathological, immunohistochemical, and immunological studies” (PLOS One, 2025):
Marks after values point to notes of the source that are not given here.

Columns and labels:
[1] = system: cyclin D1; experiment: Immunohistochemical staining of cyclin D1 in the intestine; format: in vivo, Swiss albino mice; conditions: 21 dpi, in words
Method: Immunohistochemical examination for detecting intestinal dysplasia using cyclin D1 marker: Three to five-micrometer intestinal tissue sections were deparaffinized using xylene and rehydrated using varying degrees of alcohol. Next, peroxidase activity was blocked using 3% hydrogen peroxide. The Dako target retrieval solution (pH 6.0) was applied for twenty minutes. The sections were treated for one hour with the primary antibody (Anti-Cyclin D1 antibody [SP4], ab 16663, Abcam, UK, diluted 1/100 in PBS). Antibody binding was identified using Dako’s HRP Envision Kit (Dako Cytomation, Denmark).

[2] = system: Cryptosporidium parvum; experiment: Histopathological examination of the spleen (H&E); format: in vivo, Swiss albino mice; conditions: 21 dpi, in words
Method: (§1) At 21 dpi, the mice were humanely euthanized under light anesthesia induced by isoflurane inhalation (Forane®, Baxter, UK). Representative tissue specimens from all animals’ intestines, livers, and spleens were carefully collected and fixed in a 10% neutral buffered formalin solution for 48 hours. Following fixation, the tissues were dehydrated through a graded series of ethyl alcohol concentrations, cleared in xylene, and subsequently embedded in paraffin wax. Two sections, each 5 µm thick, were obtained from each tissue specimen. The sections were then deparaffinized in xylene and rehydrated through a descending series of alcohol concentrations. After rehydration, the tissue sections were mounted onto histological slides and stained with hematoxylin and eosin (H&E) for microscopic examination. The prepared slides were thoroughly analyzed under a light microscope to identify pathological alterations and evaluate the administered drug’s potential ameliorative effects. This standardized protocol ensured accurate and consistent histological assessment across all samples [39].

[3] = system: Cryptosporidium parvum; experiment: Oocyst shedding in immunosuppressed infected mice; format: in vivo, Swiss albino mice; conditions: for I % (percent inhibition of oocyst count) / I% (percent inhibition of oocyst count, effectiveness): versus infected untreated group
Method: Animals: The study was conducted following approval by the Research Ethics Committee of Zagazig University, Institutional Animal Care and Use Committee (ZU-IACUC), under protocol number ZU-IACUC/2/F/53/2024, following the National Institutes of Health guidelines for animal experimentation. Seventy male laboratory-bred Swiss albino mice free of parasites were included in this study. The mice weighed 20-25 grams at the start of the trial and were between four and six weeks old. They were purchased from the Biological Supply Center of the Theodor Bilharz Research Institute (TBRI). Throughout the trial, the mice were housed in an air-conditioned animal facility maintained at 20-22°C and were provided with a standard commercial pelleted diet and free access to water. […] Immunosuppression: The mice were subjected to immunosuppression by administering dexamethasone (Dexazone, […] Pharmaceuticals, Cairo, Egypt) orally through an esophageal tube at a rate of 0.25 μg/g/day for 14 consecutive days before being inoculated with C. parvum oocysts. Throughout the experiment, the mice received the same dosage of dexamethasone. The infection: In a previous study, we isolated Cryptosporidium oocysts from diarrheal calves and genetically identified them as C. parvum. The 2.5% potassium dichromate solution containing purified oocysts was stored at 4°C until needed. After preparing an infectious inoculum and counting the number of oocysts in the concentrated stock inoculum, the fluid volume of the inoculum per mouse was determined. Oral-gastric gavage was used to infect each mouse orally with C. parvum oocysts. Approximately 3 × 10^3 oocysts/mouse were used to infect each mouse at 0 days post-infection (dpi). […] Thymoquinone loaded on chitosan nanoparticles was given at the same dose for Group VII. Chitosan was administered at 200 mg/kg three times a week, starting at seven dpi for 2 weeks for Group III [36]. Assessments of the drug therapy: Parasitological examination: The mice feces were collected at 7, 14, and 21 dpi. For the oocyst shedding assessment, the number of Cryptosporidium oocysts in the fecal pellets was counted after staining with Kinyoun's acid-fast stain. Fecal samples were collected from each infected mouse. The mean number of oocysts was calculated for each mouse group. After weighing, a milligram of the fecal pellet was placed in 1 milliliter of 10% formalin. Centrifugation concentrated the fecal solution for ten minutes at 7000 rpm. The number of oocysts in one milliliter of the feces sample was calculated using 100 μl of fecal material dried, stained, and observed through an oil immersion lens (x100). The oocyst count was detected and expressed per gram of feces. The effectiveness of each drug was assessed according to [35] and represented as a percentage of reduction using the following formula: Efficacy(%)=100×((infected model group oocyst count-treated model group oocyst count)/(infected model group oocyst count)) %Inhibition = [(mean oocyst count in the infected untreated group - mean oocyst count in the infected treated group)/mean oocyst count in the infected untreated group] × 100

[4] = system: Cryptosporidium parvum; experiment: Histopathological examination of the liver (H&E); format: in vivo, Swiss albino mice; conditions: 21 dpi, in words
Method: as §1

[5] = system: Cryptosporidium parvum; experiment: Histopathological examination and scores of the intestine (H&E); format: in vivo, Swiss albino mice; conditions: 21 dpi; for Intestinal histopathological findings: H&E, in words
Method: as §1, with “[39]. Histopathological scores for intestine: H&E-stained tissue sections of the intestine were evaluated in a blinded manner by assessing specific histological parameters, including mononuclear cell infiltration in the lamina propria, crypt hyperplasia, depletion or hyperplasia of goblet cells, and alterations in mucosal histoarchitecture. A systematic scoring approach was employed to quantify these histological changes. Histological alterations were counted in 50 randomly selected microscopic fields (captured images; 40 × objective) from each mouse within each experimental group. This method ensured a comprehensive and unbiased assessment of intestinal pathology across all samples [40].” for “[39].”

[6] = system: IL-10; experiment: Serum IL-10 by ELISA; format: in vivo, Swiss albino mice
Method: (§2) Immunological measurements: Interleukin-10 (IL-10) and interferon-gamma (IFN-γ) levels in mouse sera were measured. Blood samples were collected in plain tubes from the mice’s retroorbital veins at the indicated time points (14 dpi and 21 dpi). After 30 minutes at room temperature and 15 minutes of centrifugation at 3000 rpm, sera were collected and stored at −20°C. Using an ELISA kit and following the manufacturer’s instructions, the enzyme-linked immunosorbent assay (ELISA) was employed to measure the levels of IFN-γ and IL-10 in the serum (Bioneovan Co.; Ltd, Beijing, China).

[7] = Pharmacokinetic study after oral administration; format: in vivo, Wistar albino rats; conditions: rats, oral 20 mg/kg; for AUC(0-t): read-out: AUC₀ → 24; for half-life: read-out: T1/₂ (converted)
Method: All groups received an oral dose of 20 mg/kg of their respective formulations. Blood samples (500 μL) were collected from the ocular vein into heparinized tubes at intervals of 0.5, 1, 2, 4, 6, 8, 12, and 24 hours post-administration. The samples were centrifuged at 10,000 rpm for 5 min to isolate plasma stored at −20°C. Plasma samples were deproteinized by adding 1 mL of acetonitrile to each sample, followed by vortexing for 10 min and centrifugation at 6,000 rpm for another 10 min. […] Pharmacokinetic parameters such as peak plasma concentration (Cmax), time to reach peak concentration (Tmax), mean residence time (MRT), area under the curve (AUC), elimination rate constant (Kel), and plasma half-life (t1/2) were calculated using PK Solver 2.0 software through non-compartmental analysis.

[8] = system: IFN-γ; experiment: Serum IFN-γ by ELISA; format: in vivo, Swiss albino mice
Method: as §2

[9] = In vitro release study, dialysis method; format: physicochemical; conditions: PBS pH 6.8, 37°C
Method: The THQ release profile from […] […] Briefly, 3 mL of the […] suspension was placed in a dialysis bag (M.W. 12 kDa, Sigma-Aldrich). Each sealed dialysis bag was immersed in 50 mL of PBS (pH 6.8) in a shaking incubator at 37 ± 0.5°C and 100 rpm. Samples were withdrawn from the release medium at specified intervals and replaced with fresh buffer to maintain sink conditions. […] As a control, the release of free THQ and free NTZ was measured under the same conditions. All measurements were performed in triplicate.

[10] = system: L. donovani; design: method as in Islamuddin et al. [22]; conditions: in words; ref Islamuddin et al. [22]; cited from earlier work
[11] = 7th day PI (start of treatment), immunosuppressed mice, oral
[12] = 14th day PI, NTZ forms 100 mg/kg/day 5 days, THQ forms and CsNPs 200 mg/kg three times a week, oral from 7 dpi
[13] = 21th day PI, NTZ forms 100 mg/kg/day 5 days, THQ forms and CsNPs 200 mg/kg three times a week, oral from 7 dpi
[14] = Wistar albino, rat, plasma, n = 6

SMILES	cyclin D1 immunostaining of the intestine [1]	Spleen histopathological findings [2]	Count of Cryptosporidium oocysts per gram stool, Mean ± SE [3, 11]	I % (percent inhibition of oocyst count) ([3]; 14th day PI)	Count of Cryptosporidium oocysts per gram stool, Mean ± SE [3, 12]	I% (percent inhibition of oocyst count, effectiveness) ([3]; 21th day PI)	Count of Cryptosporidium oocysts per gram stool, Mean ± SE [3, 13]	Liver histopathological findings [4]	Intestinal histopathological findings [5]	Morphometric indices: Villus width ([5]; intestine)	Lesion frequency: Epithelial necrosis ([5]; intestine, mean ± SE)	Lesion frequency: Goblet cell hyperplasia ([5]; intestine, mean ± SE)	Lesion frequency: Mucosal erosion ([5]; intestine, mean ± SE)	Lesion frequency: Mucosal ulceration ([5]; intestine, mean ± SE)	Lesion frequency: Mucosal-associated lymphocyte hyperplasia ([5]; intestine, mean ± SE)	Lesion frequency: Vascular congestion ([5]; intestine, mean ± SE)	Lesion frequency: Villus atrophy ([5]; intestine, mean ± SE)	Lesion frequency: Villus fusion ([5]; intestine, mean ± SE)	Morphometric indices: Thickness of lamina propria ([5]; intestine, mean ± SE)	Morphometric indices: Thickness of muscular layer per image ([5]; intestine, mean ± SE)	also measured
CC(=O)Oc1ccccc1C(=O)Nc1ncc([N+](=O)[O-])s1 [NTZ, nitazoxanide, reference compound]	Moderate immunostaining	partial improvement with mild hyperplasia of lymphoid elements	307.3 ± 3 ^Aa x10^3 per gram stool	53%	146.8 ± 2.9 ^Bc x10^3 per gram stool	54%	145.5 ± 2.6 ^Bc x10^3 per gram stool	partial improvement	persistent villous atrophy and mild improvement in histopathological alterations	91.2^A	9 ± 0.58^B	21.5 ± 0.76^B	16 ± 0.58^B	9.83 ± 0.6^B	21 ± 0.58^C	21 ± 0.97^B	10 ± 0.58^B	5.17 ± 0.31^B	174.33 ± 1.05^B	65.87 ± 0.59^BC	Morphometric indices: Villus height ([5]; intestine, mean ± SE): 298.67 ± 2.4^C; Morphometric indices: Villus surface area ([5]; intestine, mean ± SE): 27609.37 ± 307.03^C; IL-10 serum level, Mean ± SE ([6]; 14 days post-infection): 16.9 ± 0.6 cd; IL-10 serum level, Mean ± SE ([6]; 21 days post-infection): 30.9 ± 0.3 ^c; concentration at 0.5 h ([7]; Wistar albino, rat, plasma): 24900 ± 9110 ng/mL; concentration at 12 h ([7]; Wistar albino, rat, plasma): 4160 ± 2710 ng/mL; concentration at 24 h ([7]; Wistar albino, rat, plasma): 1390 ± 890 ng/mL; AUC [7, 14]: 1440 ± 49.4 µg·h/mL; AUC(0-inf) [7, 14]: 1470 ± 52.3 µg·h/mL; Cmax [7, 14]: 53200 ± 4950 ng/mL; Tmax [7, 14]: 2 h; AUC(0-t) [7, 14]: 1440 ± 48.7 µg·h/mL; half-life [7, 14]: 6.55 ± 0.54 h; Kel ([7]; n = 6): 0.105 ± 0.0087 h˦ ¹; IFN-γ serum level, Mean ± SE ([8]; 14 days post-infection): 37.1 ± 1.2 ^b; IFN-γ serum level, Mean ± SE ([8]; 21 days post-infection): 28.1 ± 1.3 ^b; drug release ([9]; first eight hours): 100%
CC1=CC(=O)C(C(C)C)=CC1=O [THQ, 2-isopropyl-5-methyl-1,4-benzoquinone]	Moderate immunostaining	partial improvement with mild hyperplasia of lymphoid elements	300 ± 3.1 ^Aa x10^3 per gram stool	75%	78 ± 1.5 ^Bd x10^3 per gram stool	77%	72 ± 2.6 ^Cd x10^3 per gram stool	partial improvement	greater improvement than the NTZ-treated group	91.4^A	7.5 ± 0.43^B	20.67 ± 0.49^BC	14.83 ± 0.65^B	8.83 ± 0.48^B	22 ± 0.68^C	18.5 ± 0.85^B	9.83 ± 0.87^B	4.83 ± 0.17^B	170.33 ± 1.15^BC	64.35 ± 0.2^C	Morphometric indices: Crypt depth ([5]; intestine, mean ± SE): 79.7 ± 0.22^AB; Morphometric indices: Villus height ([5]; intestine, mean ± SE): 302 ± 2.35^C; Morphometric indices: Villus surface area ([5]; intestine, mean ± SE): 27975.53 ± 357.01^C; IL-10 serum level, Mean ± SE ([6]; 14 days post-infection): 18.5 ± 0.6^bc; IL-10 serum level, Mean ± SE ([6]; 21 days post-infection): 33.3 ± 0.4 ^bc; concentration at 0.5 h ([7]; Wistar albino, rat, plasma): 9790 ± 3250 ng/mL; concentration at 12 h ([7]; Wistar albino, rat, plasma): 4880 ± 1790 ng/mL; concentration at 24 h ([7]; Wistar albino, rat, plasma): 4190 ± 1580 ng/mL; AUC [7, 14]: 340 ± 13.6 µg·h/mL; AUC(0-inf) [7, 14]: 630 ± 22.1 µg·h/mL; Cmax [7, 14]: 43600 ± 7920 ng/mL; MRT [7, 14]: 6.97 ± 1.32 h; Tmax [7, 14]: 4 h; AUC(0-t) [7, 14]: 316 ± 12.5 µg·h/mL; half-life [7, 14]: 53.2 ± 4.88 h; Kel ([7]; n = 6): 0.013 ± 0.0012 h˦ ¹; IFN-γ serum level, Mean ± SE ([8]; 14 days post-infection): 36.8 ± 1.5 ^b; IFN-γ serum level, Mean ± SE ([8]; 21 days post-infection): 29.3 ± 0.6 ^ab; leishmanicidal activity [10]: significant leishmanicidal activity; drug release ([9]; after 12 hours): 100%
